In US20260184708A1, “PYRIDAZINONES AND METHODS OF USE THEREOF” (GFB (ABC), LLC, priority 2017, published 2026):
Read-outs that look alike come from different tables or passages of the source.

Target: T1, TRPC5 (Homo sapiens, UniProt Q9UL62)
T1 construct: expressed in transfected cells; host or cells: HEK 293
T1 sequence (Q9UL62 1-973): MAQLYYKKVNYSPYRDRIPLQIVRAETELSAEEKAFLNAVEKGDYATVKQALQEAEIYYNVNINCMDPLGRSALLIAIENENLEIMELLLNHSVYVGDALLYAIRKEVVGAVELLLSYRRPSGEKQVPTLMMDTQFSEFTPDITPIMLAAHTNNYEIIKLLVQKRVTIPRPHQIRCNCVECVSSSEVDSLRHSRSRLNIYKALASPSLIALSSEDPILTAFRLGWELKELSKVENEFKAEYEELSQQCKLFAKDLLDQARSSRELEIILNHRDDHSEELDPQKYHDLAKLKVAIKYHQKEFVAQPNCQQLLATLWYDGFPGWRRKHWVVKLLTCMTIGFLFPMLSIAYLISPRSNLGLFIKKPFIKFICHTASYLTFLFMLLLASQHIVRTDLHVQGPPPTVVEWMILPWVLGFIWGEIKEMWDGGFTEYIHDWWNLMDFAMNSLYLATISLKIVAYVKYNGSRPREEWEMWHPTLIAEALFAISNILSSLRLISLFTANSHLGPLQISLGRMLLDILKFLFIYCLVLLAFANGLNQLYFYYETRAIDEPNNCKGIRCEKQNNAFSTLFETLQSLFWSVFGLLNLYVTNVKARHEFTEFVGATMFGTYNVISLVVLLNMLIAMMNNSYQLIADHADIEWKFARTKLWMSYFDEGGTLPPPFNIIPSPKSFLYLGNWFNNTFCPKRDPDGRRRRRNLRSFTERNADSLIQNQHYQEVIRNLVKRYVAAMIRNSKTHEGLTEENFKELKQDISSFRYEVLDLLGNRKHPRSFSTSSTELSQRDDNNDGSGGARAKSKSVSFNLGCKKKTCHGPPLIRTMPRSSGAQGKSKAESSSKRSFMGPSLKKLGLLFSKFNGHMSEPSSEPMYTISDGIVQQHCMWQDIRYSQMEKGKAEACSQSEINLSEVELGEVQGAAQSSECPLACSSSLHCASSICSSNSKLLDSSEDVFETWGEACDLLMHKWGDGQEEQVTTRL
Assay: TRPC5 automated patch clamp assay (Qpatch), current block after rosiglitazone stimulation
Format: cell-based
Conditions: HEK293 cells overexpressing TRPC5, rosiglitazone stimulation
Experimental: HEK 293 cells expressing human TRPC5 were harvested, re-suspended in serum free medium, and added to the automated platform and used within 2-3 hours. Internal and external physiological solutions were freshly prepared prior to the assay. The external solution contained: 145 mM NaCl, 4 mM KCl, 2 mM CaCl2), 1 mM MgCl2, 10 mM HEPES, 10 mM glucose, pH 7.4 with NaOH and 300 mOsm/L. The internal solution contained 120 mM L-aspartic acid, 120 mM CsOH·H2O, 20 mM CsCl, 2 mM MgCl2, 8.8 mM CaCl2), 10 mM EGTA, 10 mM HEPES, 10 mM Glucose, 0.1 mM GTP and 2 mM Na2ATP; pH 7.2 with CsOH and 290 mOsm/L. The free internal Ca2+ concentration was buffered to 1 μM.
The automated electrophysiological platform QPatch 16 from Sophion (Denmark) was used to carry out the compounds profiling. The series resistance and quality of seals were continuously monitored during the experiments. Data was analyzed using Sophion QPatch assay software 5.6 (Odense). IC50 values were calculated using a least squares regression algorithm (Hill equation).
To monitor the ion currents, a voltage ramp from −100 mV to +100 mV, over 300 ms, was applied every 10 seconds, from a holding potential of −60 mV.
After recording for a minimum of 60 seconds control period, Rosiglitazone (30 uM), was applied to activate the channel.

[1] = Table 3, 80 mV, read-out: TRPC5_QP_ XC50_80
[2] = Table 3, 100 mV, read-out: TRPC5_QP_ XC50_100
[3] = Table 4, 80 mV, read-out: TRPC5_QP_ XC50_80
[4] = Table 4, 100 mV, read-out: TRPC5_QP_ XC50_100
[5] = Table 5, 80 mV, read-out: TRPC5_QP_ XC50_80
[6] = Table 5, 100 mV, read-out: TRPC5_QP_ XC50_100
[7] = 80 mV, read-out: TRPC5_QP XC50_80
[8] = 100 mV, read-out: TRPC5_QP XC50_100

SMILES | IC50 [3] [µM] | IC50 [4] [µM] | IC50 [5] [µM] | IC50 [6] [µM] | other results
Cn1ccnc1CN1CCN(c2cn[nH]c(=O)c2Br)CC1 |  |  |  |  | IC50 [1]: 10 to 500 µM; IC50 [2]: 10 to 500 µM
Cn1ncc2c(CN3CCN(c4cn[nH]c(=O)c4Cl)CC3)cccc21 | 10 to 500 | 10 to 500 |  |  | 
Cc1ccccc1CN1CCN(c2cn[nH]c(=O)c2C2CC2)CC1=O | 1 to 5 | 1 to 5 |  |  | 
Cc1cc(F)ccc1CN1CCN(c2cn[nH]c(=O)c2Cl)CC1=O | 1 to 5 | 1 to 5 |  |  | 
O=C1CN(c2cn[nH]c(=O)c2Cl)CCN1Cc1cccc2cn[nH]c12 |  |  | 10 to 500 | 10 to 500 | 
Cc1ccccc1CN1CCN(c2cn[nH]c(=O)c2-c2ccccc2)CC1 |  |  |  |  | IC50 [1]: 5 to 10 µM; IC50 [2]: 5 to 10 µM
O=c1[nH]ncc(N2CC3(CN(Cc4ccccc4)C3)C2)c1Br |  |  |  |  | IC50 [1]: 10 to 500 µM; IC50 [2]: 10 to 500 µM
O=c1[nH]ncc(N2CCCN(Cc3ccccc3)CC2)c1Br |  |  |  |  | IC50 [1]: 10 to 500 µM; IC50 [2]: 10 to 500 µM
O=c1[nH]ncc(N2CCOC(c3ccccc3)C2)c1Cl (centres unmarked) | 10 to 500 | 10 to 500 |  |  | 
O=C1CN(c2cn[nH]c(=O)c2Cl)CCN1CC1CCC(F)(F)CC1 |  |  | 5 to 10 | 5 to 10 | 
CC(C)(C)c1ccc(CN2CCN(c3cn[nH]c(=O)c3Cl)CC2=O)cc1 |  |  | 10 to 500 | 10 to 500 | 
Cc1cc(F)ccc1CN1CCN(c2cn[nH]c(=O)c2C(F)(F)F)CC1=O |  |  | 5 to 10 | 5 to 10 | 
Cc1ccccc1CN1CCN(c2cn[nH]c(=O)c2C(F)(F)F)CC1=O |  |  |  |  | IC50 [1]: 1 to 5 µM; IC50 [2]: 5 to 10 µM
NC(=O)CN1CCN(c2cn[nH]c(=O)c2Br)CC1 |  |  |  |  | IC50 [7]: 10 to 500 µM; IC50 [8]: 10 to 500 µM
CN(C)C(=O)CN1CCN(c2cn[nH]c(=O)c2Cl)CC1 [drawing 708] | 10 to 500 | 10 to 500 |  |  | 
Cc1ncccc1CN1CCN(c2cn[nH]c(=O)c2Cl)CC1=O |  |  | 10 to 500 | 10 to 500 | 
O=c1[nH]ncc(N2CCN(S(=O)(=O)c3ccccc3)CC2)c1Br |  |  |  |  | IC50 [7]: 10 to 500 µM; IC50 [8]: 10 to 500 µM
Cc1ccccc1Cn1cnc2c1CN(c1cn[nH]c(=O)c1Cl)CC2 |  |  | 10 to 500 | 10 to 500 | 
Cc1ccccc1CN1CCCN(c2cn[nH]c(=O)c2Br)CC1 |  |  |  |  | IC50 [7]: 5 to 10 µM; IC50 [8]: 5 to 10 µM
Cc1cc(F)ccc1CN1CCN(c2cc(=O)[nH]nc2C)CC1=O |  |  | 10 to 500 | 10 to 500 | 
O=C1CN(c2cn[nH]c(=O)c2Cl)CCN1Cc1ccccc1Oc1ccccc1 | 5 to 10 | 5 to 10 |  |  | 
O=C1CN(c2cn[nH]c(=O)c2Cl)CCN1Cc1cccc2ccccc12 | 1e-05 to 1 | 1e-05 to 1 |  |  | 
Cc1cc(C(F)(F)F)ccc1CN1CCN(c2cn[nH]c(=O)c2Cl)CC1 | 10 to 500 | 10 to 500 |  |  | 
CC(c1ccccc1)N1CCN(c2cn[nH]c(=O)c2Br)CC1 (centres unmarked) |  |  |  |  | IC50 [7]: 1 to 5 µM; IC50 [8]: 5 to 10 µM
Cn1nc(CN2CCN(c3cn[nH]c(=O)c3Cl)CC2)c2ccccc21 |  |  | 5 to 10 | 10 to 500 | 

SMILES | IC50 [3] [µM] | IC50 [4] [µM] | IC50 [5] [µM] | IC50 [6] [µM] | other results
O=C1CN(c2cn[nH]c(=O)c2Cl)CCN1Cc1ccc(OC(F)(F)F)cc1 |  |  | 1 to 5 | 1 to 5 | 
CCS(=O)(=O)c1c(N2CCN(Cc3ccccc3C)C(=O)C2)cn[nH]c1=O |  |  |  |  | IC50 [1]: 10 to 500 µM; IC50 [2]: 10 to 500 µM
O=C1CN(c2c(Cl)c(Br)n[nH]c2=O)CCN1Cc1ccccc1C(F)(F)F | 1 to 5 | 5 to 10 |  |  | 
O=c1[nH]ncc(N2CCN(CC(F)(F)F)CC2)c1Br |  |  |  |  | IC50 [1]: 10 to 500 µM; IC50 [2]: 10 to 500 µM
CC[C@@H](c1ccccc1)N1CCN(c2cn[nH]c(=O)c2Cl)CC1 |  |  | 1 to 5 | 1 to 5 | 
Cc1ccccc1CN1CCN(c2cn[nH]c(=O)c2Cl)CC1=O [drawing 664] |  |  |  |  | IC50 [1]: 1e-05 to 1 µM; IC50 [2]: 1e-05 to 1 µM
O=C1CN(c2cn[nH]c(=O)c2Cl)CCN1Cc1cccnc1Cl |  |  | 10 to 500 | 10 to 500 | 
COc1ncccc1CN1CCN(c2cn[nH]c(=O)c2Cl)CC1=O |  |  | 5 to 10 | 5 to 10 | 
O=C1CN(c2cn[nH]c(=O)c2Cl)CCN1Cc1ccc(F)cc1Cl [drawing 682] |  |  |  |  | IC50 [1]: 1 to 5 µM; IC50 [2]: 1 to 5 µM
Cc1n[nH]c(=O)c(Cl)c1N1CCN(Cc2ccc(F)cc2C(F)(F)F)C(=O)C1 |  |  | 5 to 10 | 5 to 10 | 
COc1cn[nH]c(=O)c1N1CCN(Cc2ccc(F)cc2C)CC1 |  |  | 1 to 5 | 1 to 5 | 
Cc1ccccc1CN1CCN(c2cn[nH]c(=O)c2C2CCOCC2)CC1=O | 10 to 500 | 10 to 500 |  |  | 
O=C1CN(c2cn[nH]c(=O)c2Cl)CCN1Cc1cccc(Oc2ccccc2)c1 | 1 to 5 | 1 to 5 |  |  | 
Cc1ccccc1CN1CCN(c2cn[nH]c(=O)c2Br)C(C)C1 (centres unmarked) [drawing 650] |  |  |  |  | IC50 [1]: 10 to 500 µM; IC50 [2]: 10 to 500 µM
Cc1ccccc1Cn1cnc2c1CCN(c1cn[nH]c(=O)c1Cl)C2 [drawing 830] |  |  | 1e-05 to 1 | 1e-05 to 1 | 
O=C(c1ccccc1)N1CCN(c2cn[nH]c(=O)c2Br)CC1 |  |  |  |  | IC50 [7]: 10 to 500 µM; IC50 [8]: 10 to 500 µM
Cc1ccccc1CN1CCN(c2cn[nH]c(=O)c2Br)C(C)C1 (centres unmarked) [drawing 647] |  |  |  |  | IC50 [1]: 1 to 5 µM; IC50 [2]: 1 to 5 µM
O=C1CN(c2cn[nH]c(=O)c2Cl)CCN1C1(c2ccccc2)CC1 |  |  | 1 to 5 | 1 to 5 | 
CCN(CC)C(=O)CN1CCN(c2cn[nH]c(=O)c2Cl)[C@H](C)C1 | 10 to 500 | 10 to 500 |  |  | 
O=c1[nH]ncc(N2CCN(C3(c4ccccc4)CC3)CC2)c1Cl | 5 to 10 | 5 to 10 |  |  | 
COc1n[nH]c(=O)cc1N1CCN(Cc2ccc(F)cc2C)CC1 | 10 to 500 | 10 to 500 |  |  | 
O=C1CN(c2cn[nH]c(=O)c2Cl)CCN1Cc1ccc(Cl)cn1 | 10 to 500 | 10 to 500 |  |  | 
CCCOc1n[nH]c(=O)cc1N1CCN(Cc2ccc(F)cc2C)CC1 |  |  | 10 to 500 | 10 to 500 | 
O=c1[nH]ncc(N2CCN(Cc3ccccc3)C3(CC3)C2)c1Br |  |  |  |  | IC50 [7]: 10 to 500 µM; IC50 [8]: 10 to 500 µM
